# According to patent US8614068B2, “Process for producing hepcidin” (Hellenic Pasteur Institute, priority 2007, dated 2013):
# Entries after “also recorded” stand apart in the source; their conditions may differ.
# Experiments:
# [1] = tested on: RAW 264.7 macrophages; experiment: Labile Iron Pool (LIP) calcein assay; format: cell-based, murine; details: Hep-25His-treated RAW 264.7 macrophages
# Experimental: FIG. 6. Recombinant tagged hepcidins increase the Labile Iron Pool in RAW 264.7 macrophages. RAW 264.7 macrophages were treated with 10 μM Hep-25His having the sequence of SEQ ID NO. 6, Hep-25MycHis having the sequence of SEQ ID NO. 8, Hep-20MycHis having the sequence of SEQ ID NO. 7 and negative peptide having the sequence of SEQ ID NO. 9 for 4 h at 37° C. PBS was used as negative and FAC at 30 μg/ml as positive control. Relative alterations of the LIP were monitored with calcein upon addition of isonicotinoyl-hydraxone salicylaldehyde. Data are expressed as mean±S.D. of two independent experiments performed in triplicates relative to control. **p<0.001, *p<0.05. Statistical analysis was performed with t-Test.
# LIP assay—The fluorescent metalosensor calcein (Molecular Probes, Eugene, Oreg.) was used for the measurement of alterations in the levels of the LIP (Labile Iron Pool) (Murphy, A. T., Witcher, D. R., Luan, P., and Wroblewski, V. J. (2007) Blood 110, 1048-54). 1×10^6 RAW 264.7 macrophages were plated in 6-well plates. […] Fluorescence was measured with the Perkin Elmer LS55 fluorescent plate reader (Perkin Elmer LifeSciences, Boston Mass.) (488 nm excitation, 517 nm emission). […] Relative changes were expressed as percentage of the control. […]
# [2] = target: T1, FPN1-GFP (Mus musculus, UniProt Q9JHI9); experiment: FPN1-GFP internalization by confocal microscopy in HEK293-Fpn cells; format: cell-based; details: HEK293-Fpn cells induced with ponasterone 24 h, treated 3 h
# T1 construct: expressed in transfected cells
# T1 sequence (Q9JHI9 1-570): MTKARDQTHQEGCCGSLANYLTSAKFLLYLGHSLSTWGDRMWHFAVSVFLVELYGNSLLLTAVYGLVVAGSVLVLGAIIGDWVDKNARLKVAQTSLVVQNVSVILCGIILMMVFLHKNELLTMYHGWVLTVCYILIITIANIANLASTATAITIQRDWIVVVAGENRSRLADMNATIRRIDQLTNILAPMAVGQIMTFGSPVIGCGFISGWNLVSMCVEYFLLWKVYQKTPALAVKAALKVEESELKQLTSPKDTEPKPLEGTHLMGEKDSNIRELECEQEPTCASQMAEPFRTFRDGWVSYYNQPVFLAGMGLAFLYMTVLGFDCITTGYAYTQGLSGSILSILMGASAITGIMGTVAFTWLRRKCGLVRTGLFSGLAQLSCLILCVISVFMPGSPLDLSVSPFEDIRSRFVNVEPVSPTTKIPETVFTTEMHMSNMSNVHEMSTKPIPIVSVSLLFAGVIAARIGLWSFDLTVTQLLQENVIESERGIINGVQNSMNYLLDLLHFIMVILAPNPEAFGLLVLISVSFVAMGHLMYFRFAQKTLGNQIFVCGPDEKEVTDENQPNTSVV
# Experimental: A, RAW 264.7 macrophages were treated with 11 μM and 10 μM of synthetic hepcidin-25 (having the sequence of SEQ ID NO. 2) and Hep-25His (having the sequence of SEQ ID NO. 6) for 4 h at 37° C. or with PBS as negative control. Cell lysates were subjected to 8% SDS PAGE and Western Blot with antibodies against TfR1, Ferroportin and actin as loading control. B, The signal density of ferroportin, TfR1 and actin protein bands from two independent experiments were quantified by densitometry and their intensity relative to actin was calculated. Data are expressed as mean of ratios of TfR1 or to actin levels ±S.D. for each experimental condition. *p<0.01. […] Hep25-His, negative peptide and PBS was incubated with Raw 264.7 macrophages, followed by cross-linking with DSS. Cell lysates were incubated with Ni2-NTA and eluates were analyzed by Western blot using anti-FPN1 Ab. […] Fluorescence was visualized with a Leica TCS confocal microscope. […]
# Furthermore, the internalization of FPN1 in the presence of Hep25-His (having the sequence of SEQ ID NO. 6) was analyzed in HEK293-Fpn cells by confocal microscopy; these cells express an FPN1-GFP fusion construct on the plasma membrane (Nemeth, E., Tuttle, M. S., Powelson, J., Vaughn, M. B., Donovan, A., Ward, D. M. Ganz, T., Kaplan, J. (2004) Science 306, 2090-3).
substance,measurement,setting,value
hepcidin-25His [Hep-25His],"retention of iron, LIP levels",[1],increase in LIP levels
same,internalization of FPN1-GFP,[2],promoted the internalization of FPN1-GFP; also recorded: causes the internalization of FPN1-GFP
